Data: patent US6403580B1, “Quinazolines, pharmaceutical compositions containing these compounds, their use and processes for preparing them” (Boehringer Ingelheim Pharma KG, priority 2000, dated 2002)
pIC50: −log10 of the molar value.

Assays:
human EGF-R = molecular target: T1, human EGF-R (Homo sapiens, UniProt P00533); assay: Inhibition of EGF-dependent proliferation of F/L-HERc cells; assay type: cell-based; conditions: F/L-HERc cells (murine IL-3-dependent line expressing human EGF-R), stimulated with EGF 20 ng/ml, 48 hours, Cell Titer 96 assay
T1 construct: expressed in transfected cells; host or cells: F/L-HERc cells (murine IL-3-dependent FDC-P1 line, transduced with retroviral vector LXSN carrying human EGF-R cDNA; packaging line GP+E86)
Description: A cell line of murine origin dependent on interleukin-3-(IL-3) which was genetically modified to express functional human EGF-R was used here. The proliferation of these cells known as F/L-HERc can therefore be stimulated either by murine IL-3 or by EGF (cf. von Rüden, T. et al. in EMBO J . 7, 2749-2756 (1988) and Pierce, J. H. et al. in Science 239, 628-631 (1988)).
The starting material used for the F/L-HERc cells was the cell line FDC-P1, the production of which has been described by Dexter, T. M. et al. in J. Exp. Med. 152, 1036-1047 (1980). Alternatively, however, other growth-factor-dependent cells may also be used (cf. for example Pierce, J. H. et al. in Science 239, 628-631 (1988), Shibuya, H. et al. in Cell 70, 57-67 (1992) and Alexander, W. S. et al. in EMBO J. 10, 3683-3691 (1991)). […]
In order to determine the inhibitory activity of the compounds according to the invention the relative cell number was measured in O.D. units using the Cell Titer 96™ Aqueous Non-Radioactive Cell Proliferation Assay (Promega). […]

T1 sequence (P00533 25-1210): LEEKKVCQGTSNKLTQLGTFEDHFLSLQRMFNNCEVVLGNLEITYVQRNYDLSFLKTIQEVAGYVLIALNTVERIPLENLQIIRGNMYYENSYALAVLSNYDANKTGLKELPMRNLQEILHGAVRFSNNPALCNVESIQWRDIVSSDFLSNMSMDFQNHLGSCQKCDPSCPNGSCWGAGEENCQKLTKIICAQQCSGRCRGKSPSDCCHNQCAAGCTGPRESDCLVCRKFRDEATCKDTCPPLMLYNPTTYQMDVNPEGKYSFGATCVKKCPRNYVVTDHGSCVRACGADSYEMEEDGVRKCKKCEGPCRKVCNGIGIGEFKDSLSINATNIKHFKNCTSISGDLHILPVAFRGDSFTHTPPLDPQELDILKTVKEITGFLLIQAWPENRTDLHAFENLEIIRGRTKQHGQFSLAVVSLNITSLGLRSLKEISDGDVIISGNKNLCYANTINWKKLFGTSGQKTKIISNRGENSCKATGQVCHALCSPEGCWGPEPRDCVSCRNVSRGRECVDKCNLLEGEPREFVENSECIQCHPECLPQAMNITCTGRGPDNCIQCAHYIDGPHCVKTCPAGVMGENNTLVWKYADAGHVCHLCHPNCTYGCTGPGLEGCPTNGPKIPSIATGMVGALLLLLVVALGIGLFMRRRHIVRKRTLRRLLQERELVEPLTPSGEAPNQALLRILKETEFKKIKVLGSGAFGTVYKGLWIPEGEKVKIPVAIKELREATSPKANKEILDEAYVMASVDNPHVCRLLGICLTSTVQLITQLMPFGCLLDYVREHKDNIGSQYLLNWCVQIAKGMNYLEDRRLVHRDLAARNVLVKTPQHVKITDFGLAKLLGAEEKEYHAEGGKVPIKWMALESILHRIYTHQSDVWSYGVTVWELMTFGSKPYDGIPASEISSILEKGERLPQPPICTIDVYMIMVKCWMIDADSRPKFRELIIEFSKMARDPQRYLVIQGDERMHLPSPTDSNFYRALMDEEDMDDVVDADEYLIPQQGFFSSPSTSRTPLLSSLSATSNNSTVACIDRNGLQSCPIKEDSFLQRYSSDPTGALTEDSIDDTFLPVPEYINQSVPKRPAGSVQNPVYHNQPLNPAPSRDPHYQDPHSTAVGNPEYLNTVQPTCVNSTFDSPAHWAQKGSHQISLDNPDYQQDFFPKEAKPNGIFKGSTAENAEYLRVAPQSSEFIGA

Row | melting point [°C] | pIC50 (human EGF-R) | SMILES
1 | 195 to 199 |  | C=CC(=O)Nc1cc2c(Nc3ccc(F)c(Cl)c3)ncnc2cc1OCCN(C)C1COC(=O)C1 (stereo not shown) [Example 1(11), 4-[(3-chloro-4-fluorophenyl)amino]-7-{2-[N-(2-oxo-tetrahydrofuran4-yl)-N-methyl-amino]-ethoxy}-6-[(vinylcarbonyl)amino]-quinazoline]
2 |  | 9.40 | C=CC(=O)Nc1cc2c(N[C@H](C)c3ccccc3)ncnc2cc1OCCN1CC(=O)OC(C)(C)C1 [1(2), 4-[(R)-(1-phenyl-ethyl)amino]-7-[2-(2,2-dimethyl-6-oxo-morpholin-4-yl)-ethoxy]-6-[(vinylcarbonyl)amino]-quinazoline]
3 | 110 to 112 |  | C=CC(=O)Nc1cc2c(Nc3ccc(F)c(Cl)c3)ncnc2cc1OCCCCN1CC(=O)OC(C)(C)C1 [Example 1(15), 4-[(3-chloro-4-fluorophenyl)amino]-7-[4-(2,2-dimethyl-6-oxo-morpholin-4-yl)-butyloxy]-6-[(vinylcarbonyl)amino]-quinazoline]
4 | 182.5 to 184 |  | C=CC(=O)Nc1cc2c(Nc3ccc(F)c(Cl)c3)ncnc2cc1OCCN1CC(=O)OC(C)(C)C1 [Example 1(1), 4-[(3-chloro-4-fluoro-phenyl)amino]-7-[2-(2,2-dimethyl-6-oxo-morpholin-4-yl)-ethoxy]-6-[(vinylcarbonyl)amino]-quinazoline]
